Like-named read-outs stand apart in the source and are kept apart here. Where no end group is shown, it is not given here. [ ]: non-standard residue; d: D form. Lys(N3) = [N-]=[N+]=NCCCC[C@H](N)C(=O)O; Pra = C#CC[C@H](N)C(=O)O
B1: Syt1: Synaptotagmin-I, curvature-sensing protein used as positive control (protein, UniProt P21707 1-421, looked up)
Synaptotagmin-1: MVSASHPEALAAPVTTVATLVPHNATEPASPGEGKEDAFSKLKQKFMNELHKIPLPPWALIAIAIVAVLLVVTCCFCVCKKCLFKKKNKKKGKEKGGKNAINMKDVKDLGKTMKDQALKDDDAETGLTDGEEKEEPKEEEKLGKLQYSLDYDFQNNQLLVGIIQAAELPALDMGGTSDPYVKVFLLPDKKKKFETKVHRKTLNPVFNEQFTFKVPYSELGGKTLVMAVYDFDRFSKHDIIGEFKVPMNTVDFGHVTEEWRDLQSAEKEEQEKLGDICFSLRYVPTAGKLTVVILEAKNLKKMDVGGLSDPYVKIHLMQNGKRLKKKKTTIKKNTLNPYYNESFSFEVPFEQIQKVQVVVTVLDYDKIGKNDAIGKVFVGYNSTGAELRHWSDMLANPRRPIAQWHTLQVEEEVDAMLAVKK
B2: C2AB: intact C2A-C2B cytoplasmic domains of rat Synaptotamin-1 (a.a. 96-421), positive control (protein, UniProt P21707 96-421, looked up, fragment)
chain: GGKNAINMKDVKDLGKTMKDQALKDDDAETGLTDGEEKEEPKEEEKLGKLQYSLDYDFQNNQLLVGIIQAAELPALDMGGTSDPYVKVFLLPDKKKKFETKVHRKTLNPVFNEQFTFKVPYSELGGKTLVMAVYDFDRFSKHDIIGEFKVPMNTVDFGHVTEEWRDLQSAEKEEQEKLGDICFSLRYVPTAGKLTVVILEAKNLKKMDVGGLSDPYVKIHLMQNGKRLKKKKTTIKKNTLNPYYNESFSFEVPFEQIQKVQVVVTVLDYDKIGKNDAIGKVFVGYNSTGAELRHWSDMLANPRRPIAQWHTLQVEEEVDAMLAVKK

Key:
[1] = test system: lipid vesicles; experiment: 1H NMR of C2B derived peptides treated with lipid vesicles; format: binding
Experimental: To verify that the origin of the differential peptide interaction towards lipid vesicles is due to the innate property of the peptide itself and not due to the fluorophores, ^1H NMR spectrometry investigations to probe the interaction of C2B derived peptides were carried out.
This observation is in contrast to NMR profiles of peptides that are known to interact with liposomes.

[2] = test system: 8:2 POPC/POPS lipid vesicles; experiment: Fluorescence enhancement assay of C2B derived peptides with lipid vesicles; format: binding; conditions: for lipid vesicle binding and curvature sensing (fluorescence enhancement): 8:2 POPC/POPS vesicles 0.03 to 0.08 μm
Experimental: In certain examples, lipid vesicles were prepared using extrusion through membranes with pore sizes of 30, 80, and 400 nm to cover a wide range of curvatures. […] A lipid film was deposited on a glass vial by blowing down to dryness with Ar or N2 a CHCl3 solution of the lipids (Avanti Polar Lipids), followed by the removal of residual organic solvent under vacuum for several hours. The lipid film was hydrated overnight at 4° C. in PBS pH 7.4, the lipid suspension of multilamellar vesicles were subjected to five freeze-thaw cycles (except for extrusion through 400 nm pores), and followed by extrusion through polycarbonate membranes with pore diameters of 30, 80, and 400 nm to produce the desired SUVs using […]. […] An increase in the observed fluorescence intensity and a blue shifted λem maximum are directly correlated to a change in the environment surrounding the peptide, e.g., from the polar aqueous solvent to the hydrophobic lipid vesicle, and indicate a peptide-lipid interaction. The peptides were prepared by microwave-assisted SPPS, purified by reversed phase HPLC, and characterized by MALDI-TOF-MS. […] An increase in the observed fluorescence intensity and a blue shifted λem maximum are directly correlated to a change in the environment surrounding the peptide, i.e., from the polar aqueous solvent to the hydrophobic lipid vesicle, indicating a peptide-lipid interaction. Lipid vesicles composed of 8:2 palmitoyl oleoyl phosphatidylcholine (POPC) and palmitoyl oleoyl phosphatidylserine (POPS) were used to represent the approximate phospholipid composition of cellular membranes. These vesicles were prepared by extruding a suspension of multilamellar lipid vesicles in PBS buffer (pH=7.4) through polycarbonate membranes. The diameters of these lipid vesicles were measured using dynamic light scattering (DLS) that was calibrated with 50 nm polystyrene beads. […] FIG. 2 illustrates exemplary fluorescence assays performed to assess the interaction of labeled-peptides on synthetic and biologically relevant lipid vesicles. […]

[3] = target: lipid vesicles; conditions: cited from earlier work
[4] = test system: synthetic vesicles of sizes 100 nm and 400 nm; experiment: Cosedimentation assay of MARCKS-ED with synthetic vesicles; format: binding; conditions: gel electrophoresis of supernatant and pellet
Text: In another exemplary method, lipid vesicles were employed to the curvature-sensing behavior of the MARCKS derived peptides with various sizes and lipid components. The membrane curvature is defined as the reciprocal of the diameter of a particular particle, e.g., smaller-sized vesicles present highly curved membrane bilayers. A series of lipid models were made to represent various lipid components that closely resemble the lipid composition of biological membranes. […] Dynamic light scattering (DLS) and negative-stain transmission electron microscopy (TEM) were performed to confirm the different vesicle sizes following the pressure-controlled extrusion process through different membrane diameter pores. Commercial polystyrene beads were used as the calibration standard for the vesicle size validation experiments. Furthermore, a time-course experiment was carried out to confirm the stability of the vesicles up to 16 hours. Three different membrane diameters were extruded for the following biophysical characterizations: 30 nm, 100 nm, 400 nm, reflecting different membrane curvatures.
In another exemplary method, a cosedimentation assay was performed to test the size differentiation behavior of MARCKS-ED. Two vesicle pore sizes, 100 and 400 nm, were used in this experiment because vesicles smaller than 100 nm were difficult to pellet even at high centrifugation speed. MARCKS-ED (10 μM) was incubated with 600 μM synthetic vesicles of sizes 100 nm and 400 nm. The positive control was the intact C2A-C2B cytoplasmic domains (C2AB) of rat Synaptotamin-1 (a.a. 96-421). C2AB (1.5 μM) was treated with CaCl2 (1 mM) and incubated with 300 μM synthetic vesicles of sizes 100 nm and 400 nm. C2AB treated with vesicles was incubated at room temperature for 30 minutes, followed by centrifugation of 65,000 rpm for 45 minutes at 20° C. MARCKS-ED treated with vesicles was incubated at room temperature for 2 hours, followed by 75,000 rpm for 45 minutes at 20° C. […]

| Molecule | interaction with liposomes (1H NMR peak intensity) ([1]; 0.03 μm vesicles) | interaction with liposomes (1H NMR peak intensity) ([1]; vesicles with d=55±6 nm) | lipid vesicle binding and curvature sensing (fluorescence enhancement) [2] | Kd ([3]; 105 nm vesicles) [µM] | other results |
| --- | --- | --- | --- | --- | --- |
| Ac-GGDYDKIGKNDA-NH2 [C2B-Ac 3, linear 12-residue peptide derived from amino acids 363-372 of Syt1] | does not interact with the liposomes | weaker binding | – | – | – |
| C2B-Trp 4: linear GGDYDKIGKNDA peptide with N-terminal tryptophan (N-terminal tryptophan) | are interacting with the lipid vesicles | – | significant binding and curvature sensing property | – | – |
| C2B-Cou 5: linear GGDYDKIGKNDA peptide N-terminally labeled with 7-hydroxycoumarin-3-carboxylic acid ({7‑hydroxycoumarin‑3‑carbonyl}-GGDYDKIGKNDA) | are interacting with the lipid vesicles | – | significant binding and curvature sensing property | – | – |
| C2BL3C 1: 12-residue cyclic peptide from Syt1 C2B loop 3, Click cyclization of GGPraDYDKIGKNDANle(ε-N3) (GG[Pra]DYDKIGKNDA[Lys(N3)]-NH2; triazole (positions not given here); numbers in words are those of the source; also: Pra after Gly2 and Nle(ε-N3) after Ala12 joined by click triazole (head-to-tail side-chain cyclisation)) | – | also interacts with liposomes | – | – | – |
| B1 | – | – | – | 151 | fluorescence enhancement ([2]; with 30 nm vesicles, FIG. 2a): 1.28±0.02 RFU; Kd ([3]; 252 nm vesicles): 263 ± 180 µM |
| B2 | – | – | – | 151 ± 6 | pull-down by 100 nm vs 400 nm PS-containing vesicles [4]: more MARCKS-ED or C2AB was pulled down by the 100 nm, PS-containing vesicles than by the larger 400 nm vesicles; increase in binding to smaller vesicles (105 nm) relative to the larger ones (252 nm) [3]: 1.9 fold |

Source: patent US20150093333A1, “COMPOSITIONS, METHODS AND USES FOR PEPTIDES IN DIAGNOSIS, PROGRESSION AND TREATMENT OF CANCERS” (THE REGENTS OF THE UNIVERSITY OF COLORADO, body corporate, priority 2003, published 2015)
